This experiment deals with T1, L1 transport system (large neutral amino acid carrier, L1-system carrier) (Rattus norvegicus, UniProt Q63016).
T1 construct: functionality of their endogenous transporters such as the L1-system carrier; endogenous in cells; host or cells: rat primary cerebrovascular (brain microcapillary) endothelial cells, RBEC
Briefly: Competitive binding assay to the brain L1 transport system (L-[U-14C]phenylalanine on rat primary cerebrovascular endothelial cells). The method, then: Compound samples in PBS (without Ca^+2, Mg^+2)-glucose 30 mM-HEPES 10 mM—DMSO 1% as prepared in Example 1 were thawed and left for at least 30 minutes at 20-23° C. before preparation of the following sub-dilutions for the competitive binding assay: • 200 μL of the stock solution were added to 800 μL PBS (without Ca^+2, Mg^+2)-Glucose-HEPES-1% DMSO (PBSD-1) [diluted 1:5 for a final 1:5 dilution] • 100 μL (1/5 dilution above) were added to 900 μL PBSD-1 [diluted 1:10 for a final 1:50 dilution] • 100 μL (1/50 dilution above) were added to 900 μL PBSD-1 [diluted 1:10 for a final 1:500 dilution]
These sub-dilutions were used immediately or stored overnight at 4° C. before the competitive binding assay. A volume of 45 μL of each of the compound dilutions (1:5, 1:50, 1:500) in PBSD-1 was added to the appropriate wells in the dilution plate.
Brains from sixty 24-day-old rats were dissected individually on a sterile lint moistened with ice cold Hanks' balanced salt solution (Gibco BRL, Grand Island, N.Y.) containing 10 mM HEPES (medium 1) supplemented with 0.1% BSA. Cerebellum, striatum, optic nerves, and brain stem (white matter) were removed. After a mid-sagittal section of the brain, the meninges and leptomeningeal debris were removed by rolling a sterile dry cotton swab on the cortices. (Ichikawa N, Naora K, Hirano H, Hashimoto M, Masumura S, and Iwamoto K (1996). Isolation and primary culture of rat cerebral microvascular endothelial cells for studying drug transport in vitro. J Pharmacol Toxicol Meth 36: 45-52.). Clean cortices were minced in pieces of ≈2 mm^3 in 15 mL of ice-cold medium 1-0.1% BSA. The preparation was divided into 4 sterile pre-weighed tubes and centrifuged at 330× g at 20-25° C. for 5 min. Tubes were weighed and pre-warmed (37° C.) and medium 1 with 0.5% BSA containing 0.3% collagenase and 10 μg/mL DNAse 1 (Roche, Laval, Quebec, Canada) were added to each tube (1 mL/g of tissue).
The brain-collagenase mixture was vigorously agitated in a water bath at 37° C. for 90 min. Fifteen min before the end of the digestion, the tissue was homogenized using a 10-mL pipette until a creamy mixture was obtained (≈20 aspirations). Cells were washed by adding medium 1 with 0.1% BSA to the homogenate (26 mL/tube) and centrifuged at 100× g at 20-25° C. for 7 min. This washing step was repeated 3 more times, once for 5 min and twice for 3 min. Each pellet was re-suspended in 25 mL of a 15% dextran solution prepared in medium 1 with 0.1% BSA and centrifuged at 3200× g at 4° C. for 25 min to isolate vessels from neural tissue and dextran layers. Vascular pellets were re-suspended in 5 mL Ca^++—Mg^++-free-medium 1 with 0.1% BSA (medium 2) at 20-25° C. and transferred in a 50-mL tube. Remaining vessels were collected by rinsing the tubes and pooling the rinsing suspension. (Rupnick M A, Carey A, and Williams S K (1988). Phenotypic diversity in cultured cerebral microvascular endothelial cells in vitro. Cell Develop Biol 24: 435-444.)
The vascular preparation was filtered and rinsed (20 mL of medium 2) through a sterile 355-μm mesh. The 355-μm filtrate was sequentially filtered twice (20 mL of medium 2) through sterile 112-μm meshes and rinsed (Stanimirovic D B, Wong J, Ball R, and Durkin J P (1995). Free radical-induced endothelial membrane dysfunction at the site of the blood-brain barrier: relationship between lipid peroxidation, Na,K-ATPase activity, and ^51Cr release. Neurochem Res 20:1417-1427.) and the latter filtrate was filtered and rinsed through a sterile 20-μm mesh. A final step of filtration and rinse was repeated through a double layer of 20-μm meshes. All 20-μm meshes, which retained the microcapillaries, were then transferred into a 50-mL tube containing 20 mL of a 0.1% collagenase/dispase (Roche) solution in medium 2 supplemented with 10 μg/mL DNAse 1 and 0.147 μg/mL tosyl-lysine-chloromethyl-ketone (Sigma Chemical Co., Oakville, Ontario, Canada) (medium 3).

Molecules are shown by their SMILES.

T1 sequence (Q63016 whole entry): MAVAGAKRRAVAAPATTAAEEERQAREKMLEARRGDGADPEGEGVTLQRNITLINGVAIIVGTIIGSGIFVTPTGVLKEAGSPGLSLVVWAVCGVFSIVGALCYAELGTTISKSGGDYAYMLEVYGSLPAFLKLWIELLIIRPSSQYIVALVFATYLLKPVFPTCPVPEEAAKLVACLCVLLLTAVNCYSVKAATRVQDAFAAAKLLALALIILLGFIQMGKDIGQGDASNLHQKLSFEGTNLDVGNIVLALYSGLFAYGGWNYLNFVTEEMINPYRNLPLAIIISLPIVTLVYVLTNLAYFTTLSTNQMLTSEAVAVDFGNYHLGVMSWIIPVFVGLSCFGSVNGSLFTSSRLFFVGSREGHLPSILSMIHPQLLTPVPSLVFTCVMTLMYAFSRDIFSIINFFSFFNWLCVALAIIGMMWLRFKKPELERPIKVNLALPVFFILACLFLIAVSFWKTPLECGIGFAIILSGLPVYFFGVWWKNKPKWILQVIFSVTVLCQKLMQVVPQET
T1 sequence (Q794F9 whole entry partner): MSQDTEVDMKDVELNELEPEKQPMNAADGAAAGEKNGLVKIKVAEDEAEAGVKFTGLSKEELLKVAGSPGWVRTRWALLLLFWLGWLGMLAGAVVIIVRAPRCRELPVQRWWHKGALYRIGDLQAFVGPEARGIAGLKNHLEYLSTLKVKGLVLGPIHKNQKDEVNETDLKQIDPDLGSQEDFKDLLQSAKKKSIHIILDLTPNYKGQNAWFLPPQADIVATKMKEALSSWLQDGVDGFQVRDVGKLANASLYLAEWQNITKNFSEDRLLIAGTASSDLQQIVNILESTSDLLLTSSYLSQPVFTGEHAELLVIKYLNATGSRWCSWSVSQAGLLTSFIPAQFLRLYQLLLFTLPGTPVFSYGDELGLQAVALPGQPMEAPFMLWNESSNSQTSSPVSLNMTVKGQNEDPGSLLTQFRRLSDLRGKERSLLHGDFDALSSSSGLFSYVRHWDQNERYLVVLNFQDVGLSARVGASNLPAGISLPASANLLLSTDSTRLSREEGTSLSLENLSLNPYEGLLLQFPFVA

Regarding `NC(Cc1cccc(CSc2nnc(-c3ccccc3)o2)c1)C(=O)O` (stereo not drawn) [Compound 1], the “Comparison with the Binding of Phenylalanine” value (“Comparison with the Binding” below) reads like this: (10^−4 M) 2 (10 < X < 20 Rank 2); (10^−5 M) 3 (X > 20 Rank 3); (10^−6 M) 2 (10 < X < 20 Rank 2).
On to `NC(Cc1cccc(CSc2nnnn2-c2ccc(O)cc2)c1)C(=O)O` (stereo not drawn) [Compound 3], for which the “Comparison with the Binding” value by setting is: (10^−4 M) 3 (X > 20 Rank 3); (10^−5 M) 3 (X > 20 Rank 3); (10^−6 M) 3 (X > 20 Rank 3).
For the compound `NC(=O)C(N)Cc1cccc(CSc2nnnn2-c2ccc(O)cc2)c1` (stereo not drawn) [Compound 4], the “Comparison with the Binding” value is recorded as 2 (10 < X < 20 Rank 2) (10^−4 M), 3 (X > 20 Rank 3) (10^−5 M) and 3 (X > 20 Rank 3) (10^−6 M).
In the case of `NC(Cc1cccc(CSc2ncc[nH]2)c1)C(=O)O` (stereo not drawn) [Compound 5], the “Comparison with the Binding” value is, setting by setting: (10^−4 M) 3 (X > 20 Rank 3); (10^−5 M) 3 (X > 20 Rank 3); (10^−6 M) 3 (X > 20 Rank 3).
For `NC(=O)C(N)Cc1cccc(CSc2ncc[nH]2)c1` (stereo not drawn) [Compound 6], the “Comparison with the Binding” value is recorded as 0 (X < 0 Rank 0) (10^−4 M), 0 (X < 0 Rank 0) (10^−5 M) and 3 (X > 20 Rank 3) (10^−6 M).
Regarding `N[C@@H](Cc1ccccc1)C(=O)NC(Cc1cccc(CSc2ncc[nH]2)c1)C(=O)O` (stereo partly drawn) [Compound 7], the “Comparison with the Binding” value is reported as 0 (X < 0 Rank 0) (10^−4 M), 0 (X < 0 Rank 0) (10^−5 M) and 2 (10 < X < 20 Rank 2) (10^−6 M).
In the case of `NC(Cc1cccc(CSc2nnnn2-c2ccccc2)c1)C(=O)O` (stereo not drawn) [Compound 8], the “Comparison with the Binding” value is, setting by setting: (10^−4 M) 3 (X > 20 Rank 3); (10^−5 M) 3 (X > 20 Rank 3); (10^−6 M) 3 (X > 20 Rank 3).
`NC(=O)C(N)Cc1cccc(CSc2nnnn2-c2ccccc2)c1` (stereo not drawn) [Compound 9]: the “Comparison with the Binding” value by setting is: (10^−4 M) 0 (X < 0 Rank 0); (10^−5 M) 1 (0 < X < 10 Rank 1); (10^−6 M) 0 (X < 0 Rank 0).
As for `NC(Cc1cccc(CSc2nnc(-c3ccncc3)o2)c1)C(=O)O` (stereo not drawn) [Compound 10], the “Comparison with the Binding” value is 0 (X < 0 Rank 0) (10^−4 M), 1 (0 < X < 10 Rank 1) (10^−5 M) and 3 (X > 20 Rank 3) (10^−6 M).
As for `NC(=O)C(N)Cc1cccc(CSc2nnc(-c3ccncc3)o2)c1` (stereo not drawn) [Compound 11], the “Comparison with the Binding” value was 0 (X < 0 Rank 0) (10^−4 M), 1 (0 < X < 10 Rank 1) (10^−5 M) and 2 (10 < X < 20 Rank 2) (10^−6 M).
For `O=C(O)C(Cc1cccc(CSc2nnc(-c3ccncc3)o2)c1)NS(=O)(=O)c1ccc(F)cc1` (stereo not drawn) [Compound 12], in that order: 0 (X < 0 Rank 0), 0 (X < 0 Rank 0) and 2 (10 < X < 20 Rank 2).
The corresponding values for `NC(Cc1cccc(CSc2nnc(-c3ccccc3)[nH]2)c1)C(=O)O` (stereo not drawn) [Compound 13] are 3 (X > 20 Rank 3), 3 (X > 20 Rank 3) and 3 (X > 20 Rank 3).
`NC(=O)C(N)Cc1cccc(CSc2nnc(-c3ccccc3)[nH]2)c1` (stereo not drawn) [Compound 14]: the “Comparison with the Binding” value was 0 (X < 0 Rank 0) (10^−4 M), 3 (X > 20 Rank 3) (10^−5 M) and 2 (10 < X < 20 Rank 2) (10^−6 M).
With `NC(Cc1cccc(CSc2nccc(O)n2)c1)C(=O)O` (stereo not drawn) [Compound 16], the “Comparison with the Binding” value is listed as 0 (X < 0 Rank 0) (10^−4 M), 1 (0 < X < 10 Rank 1) (10^−5 M) and 0 (X < 0 Rank 0) (10^−6 M).
On to `O=C(NC(Cc1cccc(CSc2nccc(O)n2)c1)C(=O)O)NC(c1ccccc1)c1ccccc1` (stereo not drawn) [Compound 17], for which the “Comparison with the Binding” value (10^−4 M) is recorded as 1 (0 < X < 10 Rank 1), the “Comparison with the Binding” value (10^−5 M) is recorded as 1 (0 < X < 10 Rank 1) and the “Comparison with the Binding” value (10^−6 M) is on record as 2 (10 < X < 20 Rank 2).
Take `NC(Cc1cccc(CSc2nccc(C(F)(F)F)n2)n1)C(=O)O` (stereo not drawn) [Compound 21]: the “Comparison with the Binding” value is, setting by setting: (10^−4 M) 0 (X < 0 Rank 0); (10^−5 M) 2 (10 < X < 20 Rank 2); (10^−6 M) 1 (0 < X < 10 Rank 1).
As to `NC(=O)C(N)Cc1cccc(CSc2nccc(C(F)(F)F)n2)n1` (stereo not drawn) [Compound 22], the “Comparison with the Binding” value is 0 (X < 0 Rank 0) (10^−4 M), 1 (0 < X < 10 Rank 1) (10^−5 M) and 0 (X < 0 Rank 0) (10^−6 M).
As to `NC(Cc1cccc(CSc2cncc3c(C(F)(F)F)cccc23)n1)C(=O)O` (stereo not drawn) [Compound 24], the “Comparison with the Binding” value is 0 (X < 0 Rank 0) (10^−4 M), 0 (X < 0 Rank 0) (10^−5 M) and 3 (X > 20 Rank 3) (10^−6 M).
As to `NC(=O)C(N)Cc1cccc(CSc2cncc3c(C(F)(F)F)cccc23)n1` (stereo not drawn) [Compound 25], the “Comparison with the Binding” value reads like this: (10^−4 M) 0 (X < 0 Rank 0); (10^−5 M) 1 (0 < X < 10 Rank 1); (10^−6 M) 0 (X < 0 Rank 0).
On to `N[C@@H](Cc1ccccc1)C(=O)NC(Cc1cccc(CSc2cncc3c(C(F)(F)F)cccc23)n1)C(=O)O` (stereo partly drawn) [Compound 26], for which the “Comparison with the Binding” value is, setting by setting: (10^−4 M) 0 (X < 0 Rank 0); (10^−5 M) 0 (X < 0 Rank 0); (10^−6 M) 1 (0 < X < 10 Rank 1).
On to `NC(Cc1cccc(CSc2nc3ccccc3[nH]2)n1)C(=O)O` (stereo not drawn) [Compound 27], for which the “Comparison with the Binding” value by setting is: (10^−4 M) 3 (X > 20 Rank 3); (10^−5 M) 3 (X > 20 Rank 3); (10^−6 M) 3 (X > 20 Rank 3).
As for `N[C@@H](Cc1ccccc1)C(=O)NC(Cc1cccc(CSc2nc3ccccc3[nH]2)n1)C(=O)O` (stereo partly drawn) [Compound 29], the “Comparison with the Binding” value by setting is: (10^−4 M) 0 (X < 0 Rank 0); (10^−5 M) 1 (0 < X < 10 Rank 1); (10^−6 M) 3 (X > 20 Rank 3).
Take `NC(=O)C(N)Cc1cccc(CSc2nc3ccccc3o2)n1` (stereo not drawn) [Compound 31]: the “Comparison with the Binding” value is 0 (X < 0 Rank 0) (10^−4 M), 0 (X < 0 Rank 0) (10^−5 M) and 2 (10 < X < 20 Rank 2) (10^−6 M).
Take `N[C@@H](Cc1ccccc1)C(=O)NC(Cc1cccc(CSc2nc3ccccc3o2)n1)C(=O)O` (stereo partly drawn) [Compound 32]: the “Comparison with the Binding” value runs as follows: (10^−4 M) 0 (X < 0 Rank 0); (10^−5 M) 1 (0 < X < 10 Rank 1); (10^−6 M) 3 (X > 20 Rank 3).
